Data: US20260285846A1, “REV-ERB AGONISTS FOR TH17-MEDIATED INFLAMMATORY DISORDERS” (UNIVERSITY OF FLORID RESEARCH FOUNDATION, iNCORPORATED, priority 2021, published 2026)

target: REV-ERBα LBD (Homo sapiens, UniProt P20393, DEL324-422); experiment: biochemical; conditions: FRET assay; 6xHistag-REV-ERBα LBD with FITC-labeled SMRT corepressor peptide; read-out: REVERBα (Agonism of REV-ERBα, EC50)
Summary of the method: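 Serially diluted ligands were incubated 2 h at 4° C, in triplicate, with E. coli-expressed His-REV-ERBα LBD (281-614 Δ324-422 or 381-579; 4 nM), Tb-anti-His (1 nM) and FITC-labelled SMRT peptide (400 nM). EC50 came from sigmoidal fits of the 520/495 nm TR-FRET ratio.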

REV-ERBα LBD, sequence (P20393 with tags, fused parts or gaps DEL324-422): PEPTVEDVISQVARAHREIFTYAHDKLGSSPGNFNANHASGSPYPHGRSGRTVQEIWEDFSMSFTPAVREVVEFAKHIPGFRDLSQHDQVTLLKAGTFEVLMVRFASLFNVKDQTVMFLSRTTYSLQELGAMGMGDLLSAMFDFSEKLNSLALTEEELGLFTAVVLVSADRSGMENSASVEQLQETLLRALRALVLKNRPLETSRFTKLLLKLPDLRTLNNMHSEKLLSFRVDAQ
REV-ERBα LBD, sequence (Q9Y618 2335-2356 partner limits assumed): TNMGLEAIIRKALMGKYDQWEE

Row | EC50 [nM] | Structure (SMILES)
1 | < 100 | O=S(=O)(N[C@@H](c1cn(C2CCC2)c2cc(-c3cc(F)cnc3C(F)(F)F)c(F)cc12)C(F)F)C1CC1 [Compound 149, (S)—N-(1-(1-cyclobutyl-5-fluoro-6-(5-fluoro-2-(trifluoromethyl)pyridin-3-yl)-1H-indol-3-yl)-2,2-difluoroethyl)cyclopropanesulfonamide]
2 | < 100 | O=S(=O)(N[C@@H](c1cn(C2CC(F)C2)c2cc(-c3ccc(F)cc3C(F)(F)F)c(F)cc12)C(F)F)C1CC1 (stereo partly drawn) [Compound 181, (S)—N-(2,2-difluoro-1-(5-fluoro-6-(4-fluoro-2-(trifluoromethyl)phenyl)-1-(3-fluorocyclobutyl)-1H-indol-3-yl)ethyl)cyclopropanesulfonamide]
3 | < 100 | CC(NS(=O)(=O)C1CC1)c1cn(CC(C)(C)C)c2cc(C3CCOCC3)c(F)cc12 (stereo not drawn) [Compound 35]
4 | 100 to 1000 | CC(NS(=O)(=O)C1CC1)c1cn(CC(C)(C)C)c2cc(-c3cncc(F)c3)c(F)cc12 (stereo not drawn) [Compound 68, N-(1-(5-fluoro-6-(5-fluoropyridin-3-yl)-1-neopentyl-1H-indol-3-yl)ethyl)cyclopropanesulfonamide]
5 | < 100 | CC(C)(C)Cn1cc([C@H](NS(=O)(=O)C2CC2)C(F)F)c2cc(F)c(-c3ccncc3C(F)(F)F)cc21 [Compound 114, (S)—N-(2,2-difluoro-1-(5-fluoro-1-neopentyl-6-(3-(trifluoromethyl)pyridin-4-yl)-1H-indol-3-yl)ethyl)cyclopropanesulfonamide]
6 | < 100 | Cc1cnc(-c2cc3c(cc2F)c([C@H](NS(=O)(=O)C2CC2)C(F)F)cn3CC(C)(C)C)c(C(F)(F)F)n1 [Compound 144, (S)—N-(2,2-difluoro-1-(5-fluoro-6-(5-methyl-3-(trifluoromethyl)pyrazin-2-yl)-1-neopentyl-1H-indol-3-yl)ethyl)cyclopropanesulfonamide]
7 | < 100 | CC(C)(C)Cn1cc([C@H](NS(=O)(=O)C2CC2)C(F)F)c2cc(F)c(-c3ccc(F)cc3C(F)F)cc21 [Compound 117, (S)—N-(1-(6-(2-(difluoromethyl)-4-fluorophenyl)-5-fluoro-1-neopentyl-1H-indol-3-yl)-2,2-difluoroethyl)cyclopropanesulfonamide]
8 | < 100 | CC(NS(=O)(=O)C1CC1)c1cn(CC(C)(C)C)c2cc(C3CCOC3)c(F)cc12 (stereo not drawn) [Compound 34, N-(1-(5-fluoro-1-neopentyl-6-(tetrahydrofuran-3-yl)-1H-indol-3-yl)ethyl)cyclopropanesulfonamide]
9 | < 100 | Cc1ccc(-c2cc3c(cc2F)c([C@H](NS(=O)(=O)C2CC2)C(F)F)cn3CC(C)(C)C)c(C(F)(F)F)n1 [Compound 139, (S)—N-(2,2-difluoro-1-(5-fluoro-6-(6-methyl-2-(trifluoromethyl)pyridin-3-yl)-1-neopentyl-1H-indol-3-yl)ethyl)cyclopropanesulfonamide]
10 | < 100 | CC(C)(C)Cn1cc([C@H](NS(=O)(=O)C2CC2)C(F)F)c2ccc(-c3ncccc3F)cc21 [Compound 83, (S)—N-(2,2-difluoro-1-(6-(3-fluoropyridin-2-yl)-1-neopentyl-1H-indol-3-yl)ethyl)cyclopropanesulfonamide]
11 | < 100 | CC(NS(=O)(=O)C1CC1)c1cn(CC(C)(C)C)c2cc(-c3ncccc3C(F)(F)F)c(F)cc12 (single isomer, unassigned) [Compound 18, (S or R)—N-(1-(5-fluoro-1-neopentyl-6-(3-(trifluoromethyl)pyridine-2-yl)-1H-indol-3-yl)ethyl)cyclopropane sulfonamide]
12 | 100 to 1000 | CC(NS(=O)(=O)C1CC1)c1cn(CC(C)(C)C)c2cc(C3CCOCC3)ccc12 (single isomer, unassigned) [Compound 24, (S or R) N-(1-(1-neopentyl-6-(tetrahydro-2H-pyran-4-yl)-1H-indol-3-yl)ethyl)cyclopropanesulfonamide]
13 | 100 to 1000 | COc1cccc(C#N)c1-c1ccc2c([C@H](NS(=O)(=O)C3CCC3)C(F)(F)F)cn(CC(C)(C)C)c2c1 [Compound 6, (S)—N-(1-(6-(2-cyano-6-methoxyphenyl)-1-neopentyl-1H-indol-3-yl)-2,2,2-trifluoroethyl)cyclobutanesulfonamide]
14 | < 100 | CC(C)(C)Cn1cc([C@H](NS(=O)(=O)C2CC2)C(F)F)c2cc(F)c(-c3cnccc3C(F)(F)F)cc21 [Compound 113, (S)—N-(2,2-difluoro-1-(5-fluoro-1-neopentyl-6-(4-(trifluoromethyl)pyridin-3-yl)-1H-indol-3-yl)ethyl)cyclopropanesulfonamide]
15 | < 100 | N#Cc1cccc(C(F)(F)F)c1-c1nc2c(cc1F)c([C@H](NS(=O)(=O)C1CC1)C(F)F)cn2C1CCC1 [Compound 158, N-((1S)-1-(6-(2-cyano-6-(trifluoromethyl)phenyl)-1-cyclobutyl-5-fluoro-1H-pyrrolo[2,3-b]pyridin-3-yl)-2,2-difluoroethyl)cyclopropanesulfonamide]
16 | < 100 | CC(C)(C)Cn1cc([C@H](NS(=O)(=O)C2CC2)C(F)F)c2cc(F)c(-c3ncc(F)cc3C(F)F)cc21 [Compound 134, (S)—N-(1-(6-(3-(difluoromethyl)-5-fluoropyridin-2-yl)-5-fluoro-1-neopentyl-1H-indol-3-yl)-2,2-difluoroethyl)cyclopropanesulfonamide]
17 | < 100 | CC(C)(C)Cn1cc([C@H](NS(=O)(=O)C2CCC2)C(F)F)c2cc(F)c(-c3c(C(F)(F)F)ccnc3C#N)cc21 [Compound 135, N-((1S)-1-(6-(2-cyano-4-(trifluoromethyl)pyridin-3-yl)-5-fluoro-1-neopentyl-1H-indol-3-yl)-2,2-difluoroethyl)cyclobutanesulfonamide]
18 | < 100 | CC(C)(C)Cn1cc([C@H](NS(=O)(=O)C2CC2)C(F)F)c2ccc(-c3c(C#N)cccc3C(F)F)cc21 [Compound 103, (S)—N-(1-(6-(2-cyano-6-(difluoromethyl)phenyl)-1-neopentyl-1H-indol-3-yl)-2,2-difluoroethyl)cyclopropanesulfonamide]
19 | < 100 | Cc1ccnc(C(F)(F)F)c1-c1cc2c(cc1F)c([C@H](NS(=O)(=O)C1CC1)C(F)F)cn2CC(C)(C)C [Compound 129, N-((1S)-2,2-difluoro-1-(5-fluoro-6-(4-methyl-2-(trifluoromethyl)pyridin-3-yl)-1-neopentyl-1H-indol-3-yl)ethyl)cyclopropanesulfonamide]
20 | < 100 | Cc1ccccc1-c1ccc2c([C@H](NS(=O)(=O)C3CC3)C(F)F)cn(CC(C)(C)C)c2c1 [Compound 15, (S)—N-(2,2-difluoro-1-(1-neopentyl-6-(o-tolyl)-1H-indol-3-yl)ethyl)cyclopropanesulfonamide]
21 | < 100 | Cc1ncnc(C(F)F)c1-c1ccc2c([C@H](NS(=O)(=O)C3CC3)C(F)F)cn(CC(C)(C)C)c2c1 [Compound 120, (S)—N-(1-(6-(4-(difluoromethyl)-6-methylpyrimidin-5-yl)-1-neopentyl-1H-indol-3-yl)-2,2-difluoroethyl)cyclopropanesulfonamide]
22 | < 100 | CC(C)(C)Cn1cc([C@H](NS(=O)(=O)C2CC2)C(F)F)c2cc(F)c(-c3ncccc3Cl)cc21 [Compound 90, (S)—N-(1-(6-(3-chloropyridin-2-yl)-5-fluoro-1-neopentyl-1H-indol-3-yl)-2,2-difluoroethyl)cyclopropanesulfonamide]
23 | < 100 | CC(C)(C)Cn1cc([C@H](NS(=O)(=O)C2CC2)C(F)F)c2ccc(-c3c(C(F)F)ccnc3C#N)cc21 [Compound 118, (S)—N-(1-(6-(2-cyano-4-(difluoromethyl)pyridin-3-yl)-1-neopentyl-1H-indol-3-yl)-2,2-difluoroethyl)cyclopropanesulfonamide]
24 | < 100 | CN(C)S(=O)(=O)N[C@@H](c1cn(CC(C)(C)C)c2cc(-c3ccccc3C(F)(F)F)c(F)cc12)C(F)F [Compound 54]
25 | < 100 | [2H]C1([2H])CC(S(=O)(=O)N[C@@H](c2cn(CC(C)(C)C)c3cc(-c4ccccc4C(F)(F)F)ccc23)C(F)F)C1 [Compound 163, (S)—N-(2,2-difluoro-1-(1-neopentyl-6-(2-(trifluoromethyl)phenyl)-1H-indol-3-yl)ethyl)cyclobutane-1-sulfonamide-3,3-d2]
26 | < 100 | CC(C)(C)Cn1cc([C@H](NS(=O)(=O)C2CC(F)(F)C2)C(F)F)c2ccc(-c3ccccc3C(F)(F)F)cc21 [Compound 11, (S)—N-(2,2-difluoro-1-(1-neopentyl-6-(2-(trifluoromethyl)phenyl)-1H-indol-3-yl)ethyl)-3,3-difluorocyclobutane-1-sulfonamide]
27 | < 100 | CC(C)(C)Cn1cc([C@H](NS(=O)(=O)C2CC2)C(F)F)c2cc(F)c(-c3ccc(C#N)nc3C(F)(F)F)cc21 [Compound 110, (S)—N-(1-(6-(6-cyano-2-(trifluoromethyl)pyridin-3-yl)-5-fluoro-1-neopentyl-1H-indol-3-yl)-2,2-difluoroethyl)cyclopropanesulfonamide]
28 | 100 to 1000 | CC(NS(=O)(=O)C1CC1)c1cn(CC(C)(C)C)c2cc(-c3c(F)cccc3C#N)ccc12 (single isomer, unassigned) [Compound 26, (R or S) N-(1-(6-(2-cyano-6-fluorophenyl)-1-neopentyl-1H-indol-3-yl)ethyl)cyclopropanesulfonamide]
29 | 100 to 1000 | CC(NS(=O)(=O)C1CC1)c1cn(CC(C)(C)C)c2cc(-c3ncccc3C#N)c(F)cc12 (single isomer, unassigned) [Compound 20, (S or R)—N-(1-(6-(3-cyanopyridin-2-yl)-5-fluoro-1-neopentyl-1H-indol-3-yl)ethyl)cyclopropanesulfonamide]
30 | 100 to 1000 | CN1CC(n2cc([C@H](NS(=O)(=O)C3CC3)C(F)F)c3cc(F)c(-c4ccc(F)cc4C(F)(F)F)cc32)C1 [Compound 168, (S)—N-(2,2-difluoro-1-(5-fluoro-6-(4-fluoro-2-(trifluoromethyl)phenyl)-1-(1-methylazetidin-3-yl)-1H-indol-3-yl)ethyl)cyclopropanesulfonamide]
